From patent US9994594B2, “Inhibitors of arginase and their therapeutic applications” (MARS, INCORPORATED, priority 2010, dated 2018)
Structures can show the parent of a compound that is named as a salt. Where two headings read alike, the source gives them in different places.

What was measured:
human arginase I (ARG I) = target: T1, human arginase I (ARG I) (Homo sapiens, UniProt P05089); test: Inhibition of arginase I, spectrophotometric urea assay at 530 nm; assay type: biochemical; details: read-out: Potency (ARG I)
T1 sequence (P05089 1-322): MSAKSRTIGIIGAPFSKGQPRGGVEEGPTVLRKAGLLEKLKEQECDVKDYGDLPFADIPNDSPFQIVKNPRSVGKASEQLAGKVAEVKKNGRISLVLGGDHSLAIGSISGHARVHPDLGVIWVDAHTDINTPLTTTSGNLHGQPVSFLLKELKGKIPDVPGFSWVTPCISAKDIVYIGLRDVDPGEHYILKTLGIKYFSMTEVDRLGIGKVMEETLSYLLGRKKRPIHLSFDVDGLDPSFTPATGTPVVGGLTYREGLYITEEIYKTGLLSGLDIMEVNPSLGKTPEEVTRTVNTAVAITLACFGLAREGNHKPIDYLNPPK
Procedure: (§1) The assay established the concentration of inhibitor that is required to reduce arginase activity by 50% (IC50).
(§2) Inhibition of arginase I (ARG I) and arginase II (ARG II) by Formula I and Formula II compounds is followed spectrophotometrically at 530 nm. The compound to be tested is dissolved in DMSO at an initial concentration 50-fold greater than its final concentration in the cuvette. 10 μl of the stock solution is diluted in 90 μl of the assay buffer that comprises 0.1M sodium phosphate buffer containing 130 mM NaCl, pH 7.4, to which is added ovalbumin (OVA) at a concentration of 1 mg/ml. Solutions of arginase I and II are prepared in 100 mM sodium phosphate buffer, pH 7.4 containing 1 mg/ml of OVA to give an arginase stock solution at a final concentration of 100 ng/ml.
(§3) To each well of a 96-well microtiter plate is add 40 μl of enzyme, 10 μl of an inventive compound and 10 μl of enzyme substrate (L-arginine+manganese sulfate). For wells that are used as positive controls, only the enzyme and its substrate are added, while wells used as negative controls contain only manganese sulfate.
(§4) After incubating the microtiter plate at 37° C. for 60 minutes, 150 μl of a urea reagent obtained by combining equal proportions (1:1) of reagents A and B is added to each well of the microtiter plate to stop the reaction. The urea reagent is made just before use by combining Reagent A (10 mM o-phthaldialdehyde, and 0.4% polyoxyethylene (23) lauryl ether (w/v) in 1.8 M sulfuric acid) with Reagent B (1.3 mM primaquine diphosphate, 0.4% polyoxyethylene (23) lauryl ether (w/v), 130 mM boric acid in 3.6 M sulfuric acid). After quenching the reaction mixture, the microtiter plate is allowed to stand for an additional 10 minutes at room temperature to allow color development. The inhibition of arginase is computed by measuring the optical density (OD) of the reaction mixture at 530 nm and normalizing the OD value to percent inhibition observed in the control. The normalized OD is then used to generate a dose-response curve by plotting the normalized OD values against log [concentration] and using regression analysis to compute the IC50 values.

arginase II (ARG II) = target: T2, arginase II (ARG II) (Homo sapiens, UniProt P78540); test: Inhibition of arginase II, spectrophotometric urea assay at 530 nm; assay type: biochemical
T2 sequence (P78540 23-354): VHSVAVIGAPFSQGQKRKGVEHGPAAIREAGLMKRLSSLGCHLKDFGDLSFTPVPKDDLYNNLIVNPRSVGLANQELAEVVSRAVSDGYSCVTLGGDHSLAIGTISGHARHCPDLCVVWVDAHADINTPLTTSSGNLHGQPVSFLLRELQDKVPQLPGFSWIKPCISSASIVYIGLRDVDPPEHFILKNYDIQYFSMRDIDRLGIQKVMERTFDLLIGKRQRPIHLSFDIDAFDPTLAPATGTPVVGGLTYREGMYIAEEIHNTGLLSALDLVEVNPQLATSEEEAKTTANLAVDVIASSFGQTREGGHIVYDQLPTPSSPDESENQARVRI
Procedure: as §1, §2, §3, §4

[1] = Formula II compounds, Table 2-A
[2] = Formula II compounds, Table 2-A, read-out: Potency (ARG)
[3] = Formula I compounds, Table 2, read-out: Potency (ARG II)

NC(CCCCB(O)O)(C(=O)O)[C@@H]1CCN(Cc2ccc(F)cc2)C1 (mixture of isomers) [37-A, 2-amino-6-borono-2-((R)-1-(4-fluorobenzyl)pyrrolidin-3-yl)hexanoic acid]
IC50 (human arginase I (ARG I); [1]): 251 to 1000 nM | IC50 (arginase II (ARG II); [2]): 1000 to 2000 nM

NC(CCCCB(O)O)(C(=O)O)[C@@H]1CCN(Cc2ccc(C(F)(F)F)cc2)C1 (mixture of isomers) [38-A, 2-amino-6-borono-2-((R)-1-(4-(trifluoromethyl)benzyl)pyrrolidin-3-yl)hexanoic acid dihydrochloride]
IC50 (human arginase I (ARG I); [1]): 251 to 1000 nM | IC50 (arginase II (ARG II); [2]): 251 to 1000 nM

CCN(CCC(N)(CCCCB(O)O)C(=O)O)Cc1ccccc1 (racemic) [compound 19, (R/S)-2-Amino-2-[2-(benzyl-ethyl-amino)-ethyl]-6-borono-hexanoic acid dihydrochloride]
IC50 (human arginase I (ARG I); Formula I compounds, Table 2): 2000 to 5000 nM | IC50 (arginase II (ARG II); [3]): 1000 to 2000 nM

NC(CCCCB(O)O)(CNC(c1ccccc1)C(O)c1ccccc1)C(=O)O (stereo in doubt) [compound 89, 2-amino-6-borono-2-(((1R,2S)-2-hydroxy-1,2-diphenylethylamino)methyl)hexanoic acid dihydrochloride]
IC50 (human arginase I (ARG I); Formula I compounds, Table 2): > 5000 nM | IC50 (arginase II (ARG II); [3]): > 5000 nM

N[C@](CCCCB(O)O)(C[C@H]1CCCN1)C(=O)O (stereo in doubt) [compound 115, (R)-2-amino-6-borono-2-((R)-pyrrolidin-2-ylmethyl)hexanoic acid]
IC50 (human arginase I (ARG I); Formula I compounds, Table 2): 0.1 to 250 nM | IC50 (arginase II (ARG II); [3]): 0.1 to 250 nM

NC(CCCCB(O)O)(C(=O)O)C1CCN(c2ccc(C(F)(F)F)cn2)CC1 (stereo not shown) [1-A, 2-amino-6-borono-2-(5′Trifluoromethyl-3,4,5,6-tetrahydro-2H-[1,2′]bipyridinyl-4-yl)-hexanoic acid hydrochloride]
IC50 (human arginase I (ARG I); [1]): 251 to 1000 nM | IC50 (arginase II (ARG II); [2]): 1000 to 2000 nM

NC(CCCCB(O)O)(C(=O)O)C1CCN(c2nccc(C(F)(F)F)n2)CC1 (stereo not shown) [2-A, 2-amino-6-borono-2-[(4-Trifluoromethyl-pyrimidin-2-yl)-piperidin-4-yl)-hexanoic acid hydrochloride]
IC50 (human arginase I (ARG I); [1]): 1000 to 2000 nM | IC50 (arginase II (ARG II); [2]): 2000 to 5000 nM

NC(CCCCB(O)O)(C(=O)O)C1CCN(c2cc(C(F)(F)F)nc3ccccc23)CC1 (stereo not shown) [3-A, 2-amino-6-borono-2-[(2-Trifluoromethyl-quinolin-4-yl)-piperidin-4-yl)-hexanoic acid hydrochloride]
IC50 (human arginase I (ARG I); [1]): 1000 to 2000 nM | IC50 (arginase II (ARG II); [2]): 1000 to 2000 nM

NC(CCCCB(O)O)(C(=O)O)C1CCN(c2nc3ccc(Cl)cc3o2)CC1 (stereo not shown) [4-A, 2-amino-6-borono-2-[(6-chlorobenzoxazol-2-yl)-piperidin-4-yl)-hexanoic acid hydrochloride]
IC50 (human arginase I (ARG I); [1]): 251 to 1000 nM | IC50 (arginase II (ARG II); [2]): 1000 to 2000 nM

Cc1cc2c(F)ccc(C)c2nc1N1CCC(C(N)(CCCCB(O)O)C(=O)O)CC1 (stereo not shown) [5-A, 2-amino-6-borono-2-(1-(5-fluoro-3,8-dimethylquinolin-2-yl)piperidin-4-yl)hexanoic acid dihydrochloride]
IC50 (human arginase I (ARG I); [1]): 1000 to 2000 nM | IC50 (arginase II (ARG II); [2]): 251 to 1000 nM

NC(CCCCB(O)O)(C(=O)O)C1CCN(c2cc(C(F)(F)F)c3ccccc3n2)CC1 (stereo not shown) [6-A, 2-amino-6-borono-2-(1-(4-(trifluoromethyl)quinolin-2-yl)piperidin-4-yl)hexanoic acid]
IC50 (human arginase I (ARG I); [1]): 251 to 1000 nM | IC50 (arginase II (ARG II); [2]): 1000 to 2000 nM

Cc1cc(C(F)(F)F)cc(N2CCC(C(N)(CCCCB(O)O)C(=O)O)CC2)n1 (stereo not shown) [7-A, 2-amino-6-borono-2-(1-(6-methyl-4-(trifluoromethyl)pyridin-2-yl)piperidin-4-yl)hexanoic acid]
IC50 (human arginase I (ARG I); [1]): 1000 to 2000 nM | IC50 (arginase II (ARG II); [2]): 2000 to 5000 nM

NC(CCCCB(O)O)(C(=O)O)C1CCN(c2ncc(Cl)cc2Cl)CC1 (stereo not shown) [8-A, 2-amino-6-borono-2-(1-(3,5-dichloropyridin-2-yl)piperidin-4-yl)hexanoic acid]
IC50 (human arginase I (ARG I); [1]): 2000 to 5000 nM | IC50 (arginase II (ARG II); [2]): 2000 to 5000 nM

NC(CCCCB(O)O)(C(=O)O)C1CCN(c2cc(C(F)(F)F)ccn2)CC1 (stereo not shown) [9-A]
IC50 (human arginase I (ARG I); [1]): 1000 to 2000 nM | IC50 (arginase II (ARG II); [2]): 2000 to 5000 nM

NC(CCCCB(O)O)(C(=O)O)C1CCN(c2ncc(C(F)(F)F)cc2Cl)CC1 (stereo not shown) [10-A, 2-amino-6-borono-2-(1-(3-chloro-5-(trifluoromethyl)pyridin-2-yl)piperidin-4-yl)hexanoic acid dihydrochloride]
IC50 (human arginase I (ARG I); [1]): 2000 to 5000 nM | IC50 (arginase II (ARG II); [2]): 2000 to 5000 nM

NC(CCCCB(O)O)(C(=O)O)C1CCN(c2nc3ccc(Cl)cc3s2)CC1 (stereo not shown) [11-A, 2-amino-6-borono-2-[(6-chlorobenzothiazol-2-yl)-piperidin-4-yl)-hexanoic acid dihydrochloride]
IC50 (human arginase I (ARG I); [1]): 251 to 1000 nM | IC50 (arginase II (ARG II); [2]): 251 to 1000 nM

N[C@@](CCCCB(O)O)(C(=O)O)[C@H]1CCN(c2ccc(Cl)cc2)C1 [12-A, (R)-2-amino-6-borono-2-((S)-1-(4-chlorophenyl)pyrrolidin-3-yl)hexanoic acid hydrochloride]
IC50 (human arginase I (ARG I); [1]): 2000 to 5000 nM | IC50 (arginase II (ARG II); [2]): 2000 to 5000 nM

NC(CCCCB(O)O)(C(=O)O)[C@@H]1CC(=O)N(c2ccc(Cl)cc2)C1 (stereo partly shown) [14-A, 2-amino-6-borono-2-[1-(4-chlorophenyl)-5-oxo-pyrrolidin-3-yl]-hexanoic acid hydrochloride]
IC50 (human arginase I (ARG I); [1]): 2000 to 5000 nM | IC50 (arginase II (ARG II); [2]): 2000 to 5000 nM

NC(CCCCB(O)O)(CCN1CCOCC1)C(=O)O (stereo not shown) [compound 24, 2-amino-6-borono-2-(2-morpholinoethyl)hexanoic acid]
IC50 (arginase II (ARG II); [3]): 2000 to 5000 nM

NC(CCCCB(O)O)(CCN1CCNCC1)C(=O)O (stereo not shown) [compound 32, 2-amino-6-borono-2-(2-(piperazin-1-yl)ethyl)hexanoic acid trihydrochloride]
IC50 (arginase II (ARG II); [3]): 2000 to 5000 nM

CN1CCN(CCC(N)(CCCCB(O)O)C(=O)O)CC1 (stereo not shown) [compound 35, 2-amino-6-borono-2-(2-(4-methylpiperazin-1-yl)ethyl)hexanoic acid trihydrochloride]
IC50 (arginase II (ARG II); [3]): 2000 to 5000 nM

NC(CCCCB(O)O)(CN1CCOCC1)C(=O)O (stereo not shown) [compound 81, 2-amino-6-borono-2-(morpholinomethyl)hexanoic acid dihydrochloride]
IC50 (arginase II (ARG II); [3]): > 5000 nM

NC(CO)(CCCCB(O)O)C(=O)O (stereo not shown) [compound 82, 2-amino-6-borono-2-(hydroxymethyl)hexanoic acid hydrochloride]
IC50 (arginase II (ARG II); [3]): 2000 to 5000 nM

NC(CCCCB(O)O)(Cc1cccc(F)c1)C(=O)O (stereo not shown) [compound 98, 2-amino-6-borono-2-(3-fluorobenzyl)hexanoic acid hydrochloride]
IC50 (arginase II (ARG II); [3]): > 5000 nM

NC(CCCCB(O)O)(Cc1ccccc1)C(=O)O (stereo not shown) [compound 99, 2-amino-2-benzyl-6-boronohexanoic acid hydrochloride]
IC50 (arginase II (ARG II); [3]): > 5000 nM

COCCCC(N)(CCCCB(O)O)C(=O)O (stereo not shown) [compound 100, 2-amino-6-borono-2-(3-methoxypropyl)hexanoic acid hydrochloride]
IC50 (arginase II (ARG II); [3]): > 5000 nM

NC(CCCO)(CCCCB(O)O)C(=O)O (stereo not shown) [compound 101, 2-amino-6-borono-2-(3-hydroxypropyl)hexanoic acid hydrochloride]
IC50 (human arginase I (ARG I); Formula I compounds, Table 2): 2000 to 5000 nM

O=C(O)C1(CCCCB(O)O)CCCN1 (stereo not shown) [compound 103, 2-(4-boronobutyl)pyrrolidine-2-carboxylic acid hydrochloride]
IC50 (arginase II (ARG II); [3]): > 5000 nM

CC(C)CC(N)(CCCCB(O)O)C(=O)O (stereo not shown) [compound 104, 2-amino-6-borono-2-isobutylhexanoic acid hydrochloride]
IC50 (arginase II (ARG II); [3]): > 5000 nM

CC(C)C(N)(CCCCB(O)O)C(=O)O (stereo not shown) [compound 105, 2-amino-6-borono-2-isopropylhexanoic acid hydrochloride]
IC50 (arginase II (ARG II); [3]): > 5000 nM

NC(CCCCB(O)O)(CCC1Cc2ccccc2CN1)C(=O)O (stereo not shown) [compound 131, 2-amino-6-borono-2-(2-(1,2,3,4-tetrahydroisoquinolin-3-yl)ethyl)hexanoic acid dihydrochloride]
IC50 (human arginase I (ARG I); Formula I compounds, Table 2): 251 to 1000 nM
